According to US20050282819A1, “Heterocyclic substituted indane derivatives and related compounds for the treatment of schizophrenia” (priority 2003, published 2005):

Assays:
dopamine D2 receptor = molecular target: T1, dopamine D2 receptor (Homo sapiens, UniProt P14416); assay: Dopamine D2 receptor binding ([3H]spiperone, CHO-hD2L membranes)
T1 construct: expressed in transfected cells; host or cells: CHO cells (CHO-hD2L), membrane preparation
Source text: (§1) The ability of the compounds of this invention to bind to the dopamine D2 and serotonin 2A (5HT2A) receptors can be determined using conventional radioligand receptor binding assays. All receptors can be heterologously expressed in cell lines and experiments conducted in membrane preparations from the cell lines using procedures outlined below. IC50 concentrations can be determined by nonlinear regression of concentration-dependent reduction in specific binding. The Cheng-Prussoff equation can be used to convert the IC50 to Ki concentrations.
Dopamine D2 Receptor Binding:
[^3H]Spiperone binding to a membrane preparation from CHO-hD2L cells is carried out in 250 μl of 50 mM Tris-HCl buffer containing 100 mM NaCl, 1 mM MgCl2 and 1% DMSO at pH 7.4. Duplicate samples containing (in order of addition) the test compounds, 0.4 nM [^3H]spiperone and approximately 12 μg protein are incubated for 120 minutes at room temperature. Bound radioligand is separated by rapid filtration under reduced pressure through Whatman GF/B glass fiber filters previously treated with 0.3% polyethyleneimine. Radioactivity retained on the filter is determined by liquid scintillation spectrophotometry.
The title compounds of Examples 1-120 were tested using the above assay, in which specific binding determined in the presence of 1 mM haloperidol was 95%.

[1] = molecular target: T2, serotonin 2A (5HT2A) receptor (Homo sapiens, UniProt P28223); assay: Serotonin 2A binding ([3H]ketanserin, Swiss-h5HT2A cell membranes)
T2 construct: expressed in transfected cells; host or cells: Swiss-h5HT2A cells, membranes
Source text: as §1
[^3H]Ketanserin binding to Swiss-h5HT2A cell membranes can be carried out in 250 μl of 50 mM Tris-HCl buffer pH 7.4. Duplicate samples containing (in order of addition) test compounds, 1.0 nM [^3H]ketanserin, and approximately 75 μg protein are incubated for 120 minutes at room temperature. Bound radioligand is separated by rapid filtration under reduced pressure through Whatman GF/B glass fiber filters previously treated with 0.3% polyethyleneimine. Radioactivity retained on the filter is determined by liquid scintillation spectrophotometry.

T2 sequence (P28223 whole entry): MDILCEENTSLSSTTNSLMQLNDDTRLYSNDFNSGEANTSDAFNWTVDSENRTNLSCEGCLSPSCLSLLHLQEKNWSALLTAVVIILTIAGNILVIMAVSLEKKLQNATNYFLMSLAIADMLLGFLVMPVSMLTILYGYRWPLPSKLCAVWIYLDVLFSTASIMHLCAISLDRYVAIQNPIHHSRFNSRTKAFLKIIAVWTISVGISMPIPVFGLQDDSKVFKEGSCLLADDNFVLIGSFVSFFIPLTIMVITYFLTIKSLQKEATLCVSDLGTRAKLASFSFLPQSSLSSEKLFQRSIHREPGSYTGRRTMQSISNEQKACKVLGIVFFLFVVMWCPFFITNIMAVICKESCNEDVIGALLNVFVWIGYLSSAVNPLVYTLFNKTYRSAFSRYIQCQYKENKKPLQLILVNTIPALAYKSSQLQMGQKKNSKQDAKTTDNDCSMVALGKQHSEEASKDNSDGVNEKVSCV
T1 sequence (P14416 whole entry): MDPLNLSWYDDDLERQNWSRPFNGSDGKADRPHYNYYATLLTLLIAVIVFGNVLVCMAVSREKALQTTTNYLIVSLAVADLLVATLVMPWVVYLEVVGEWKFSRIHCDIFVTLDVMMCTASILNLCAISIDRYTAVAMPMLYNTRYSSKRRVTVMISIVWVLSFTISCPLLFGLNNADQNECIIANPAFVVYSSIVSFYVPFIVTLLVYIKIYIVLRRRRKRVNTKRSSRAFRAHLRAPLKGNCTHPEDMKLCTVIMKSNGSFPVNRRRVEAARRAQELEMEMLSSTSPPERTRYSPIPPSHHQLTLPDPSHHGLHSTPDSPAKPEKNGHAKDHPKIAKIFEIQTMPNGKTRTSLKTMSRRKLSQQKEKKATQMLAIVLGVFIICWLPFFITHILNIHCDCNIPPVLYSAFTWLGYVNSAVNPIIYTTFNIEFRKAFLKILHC

Structure (SMILES) | melting point | Ki (dopamine D2 receptor) | Ki [1]
CC1(C)C(=O)C(C)(C)c2cc(CCCN3CCN(c4noc5ccccc45)CC3)ccc21.CS(=O)(=O)O | 200 to 203 °C (dec.) |  | 
CNC1C(C)(C)c2ccc(CCN3CCN(c4nsc5ccccc45)CC3)cc2C1(C)C.CS(=O)(=O)O (stereo not shown) | 200 to 203 °C (dec.) |  | 
CC(=O)N(C)C1C(C)(C)c2ccc(CCN3CCN(c4nsc5ccccc45)CC3)cc2C1(C)C.CS(=O)(=O)O (stereo not shown) | 248 to 250 °C |  | 
CC(=O)NC1C(C)(C)c2ccc(CCN3CCN(c4noc5ccccc45)CC3)cc2C1(C)C.CS(=O)(=O)O (stereo not shown) | 197 to 205 °C |  | 
CCNC1Cc2cc(CCN3CCN(c4nsc5ccccc45)CC3)ccc2C1(C)C.CS(=O)(=O)O (stereo not shown) | 115 to 125 °C (dec.) |  | 
CCN(C(C)=O)C1Cc2cc(CCN3CCN(c4nsc5ccccc45)CC3)ccc2C1(C)C.CS(=O)(=O)O (stereo not shown) | 60 to 70 °C |  | 
CCNC1Cc2ccc(CCN3CCN(c4nsc5ccccc45)CC3)cc2C1(C)C.CS(=O)(=O)O (stereo not shown) | 125 to 135 °C |  | 
CCN(C(C)=O)C1Cc2ccc(CCN3CCN(c4nsc5ccccc45)CC3)cc2C1(C)C.CS(=O)(=O)O (stereo not shown) | 62 to 72 °C |  | 
CC1(C)C(=O)C(C)(C)c2cc(CCN3CCN(c4noc5ccccc45)CC3)ccc21.CS(=O)(=O)O | 259 to 261 °C |  | 
CCOC(CN1CCN(c2noc3ccccc23)CC1)c1ccc2c(c1)C(C)(C)C(=O)C2(C)C.CS(=O)(=O)O (stereo not shown) | 219 to 222 °C |  | 
CC1(C)C(=O)C(C)(C)c2cc(CCCN3CCN(c4nsc5ccccc45)CC3)ccc21.CS(=O)(=O)O | 144 to 147 °C |  | 
CC(=O)NC1Cc2ccc(CCN3CCN(c4nsc5ccccc45)CC3)cc2C1(C)C (racemic) | 62 to 72 °C |  | 
O=C(Cc1ccoc1)NC1CCc2ccc(CCN3CCN(c4nsc5ccccc45)CC3)cc21 (stereo not shown) [Example 56, N-{6-[2-(4-BENZO[D]ISOTHIAZOL-3-YL-PIPERAZIN-1-YL)-ETHYL]-INDAN-1-YL}-2-FURAN-3-YL-ACETAMIDE] |  | 5 nM | 0.55 nM
O=C(NC1CCc2ccc(CCN3CCN(c4nsc5ccccc45)CC3)cc21)c1ccno1 (stereo not shown) [Example 58, ISOXAZOLE-5-CARBOXYLIC ACID {6-[2-(4-BENZO[D]ISOTHIAZOL-3-YL-PIPERAZIN-1-YL)-ETHYL]-INDAN-1-YL}-AMIDE] |  | 3 nM | 0.03 nM
CC(=O)N[C@H]1Cc2ccc(CCN3CCN(c4nsc5ccccc45)CC3)cc2C1 [Example 60, (S)(+)-N-{5-[2-(4-BENZO[D]ISOTHIAZOL-3-YL-PIPERAZIN-1-YL)-ETHYL]-INDAN-2-YL}-ACETAMIDE] |  | 9 nM | 0.09 nM
CC1(C)C(=O)C(C)(C)c2cc(C(O)CN3CCN(c4nsc5ccccc45)CC3)ccc21 (stereo not shown) [Example 77, 5-[2-(4-BENZO[D]ISOTHIAZOL-3-YL-PIPERAZIN-1-YL)-1-HYDROXYETHYL]-1,1,3,3-TETRAMETHYL-INDAN-2-ONE] | 189 to 191 °C |  | 

Now from value to molecule:

melting point | Ki (dopamine D2 receptor) | Ki [1] | Structure (SMILES)
58 to 68 °C |  |  | CC(=O)NC1Cc2cc(CCN3CCN(c4nsc5ccccc45)CC3)ccc2C1(C)C (racemic) [Example 115, N-{5-[2-(4-BENZO[D]ISOTHIAZOL-3-YL-PIPERAZIN-1-YL)-ETHYL]-1,1-DIMETHYL-INDAN-2-YL}-ACETAMIDE]
64 to 73 °C |  |  | CC1(C)C(=O)C(C)(C)c2cc(C(F)CN3CCN(c4nsc5ccccc45)CC3)ccc21 (stereo not shown) [Example 78, 5-[2-(4-BENZO[D]ISOTHIAZOL-3-YL-PIPERAZIN-1-YL)-1-FLUORO-ETHYL]-1,1,3,3-TETRAMETHYL-INDAN-2-ONE]
49 to 54 °C |  |  | CC1(C)c2ccc(C(F)CN3CCN(c4nsc5ccccc45)CC3)cc2C(C)(C)C1O (stereo not shown) [Example 79, 5-[2-(4-BENZO[D]ISOTHIAZOL-3-YL-PIPERAZIN-1-YL)-1-FLUORO-ETHYL]-1,1,3,3-TETRAMETHYL-INDAN-2-OL]
88 to 97 °C |  |  | CC1(C)c2ccc(C(O)CN3CCN(c4nsc5ccccc45)CC3)cc2C(C)(C)C1O (stereo not shown) [Example 80, 5-[2-(4-BENZO[D]ISOTHIAZOL-3-YL-PIPERAZIN-1-YL)-1-HYDROXY-ETHYL]-1,1,3,3-TETRAMETHYL-INDAN-2-OL]
122 to 126 °C |  |  | CC1(C)C(=O)C(C)(C)c2cc(CCN3CCN(c4nsc5ccccc45)CC3)ccc21 [Example 82, 5-[2-(4-BENZO[D]ISOTHIAZOL-3-YL-PIPERAZIN-1-YL)-ETHYL]-1,1,3,3-TETRAMETHYL-INDAN-2-ONE]
47 to 49 °C |  |  | CC1(C)c2ccc(CCN3CCN(c4nsc5ccccc45)CC3)cc2C(C)(C)C1O (stereo not shown) [Example 83, 5-[2-(4-BENZO[D]ISOTHIAZOL-3-YL-PIPERAZIN-1-YL)-ETHYL]-1,1,3,3-TETRAMETHYL-INDAN-2-OL]
96 to 101 °C |  |  | CNC(CN1CCN(c2nsc3ccccc23)CC1)c1ccc2c(c1)C(C)(C)C(O)C2(C)C (stereo not shown) [Example 85, 5-[2-(4-BENZO[D]ISOTHIAZOL-3-YL-PIPERAZIN-1-YL)-1-METHYLAMINO-ETHYL]-1,1,3,3-TETRAMETHYL-INDAN-2-OL]
104 to 110 °C |  |  | CC1(C)c2ccc(C(O)CN3CCN(c4n[nH]c5ccccc45)CC3)cc2C(C)(C)C1O (stereo not shown) [Example 86, 5-{1-HYDROXY-2-[4-(1H-INDAZOL-3-YL)-PIPERAZIN-1-YL]-ETHYL}-1,1,3,3-TETRAMETHYL-INDAN-2-OL]
75 to 80 °C |  |  | CC(=O)NC1C(C)(C)c2ccc(CCN3CCN(c4nsc5ccccc45)CC3)cc2C1(C)C (stereo not shown) [Example 109, N-{5-[2-(4-BENZO[D]ISOTHIAZOL-3-YL-PIPERAZIN-1-YL)-ETHYL]-1,1,3,3-TETRAMETHYL-INDAN-2-YL}-ACETAMIDE]
